Earlier results in patent US20030232369A1, “Molecular structure of RNA polymerase II” (priority 2002, published 2003).

Assays:
pol II [1] = details: relative to α-amanitin
pol II [2] = tested on: pol II

Molecule: proamanullin
- reduction of inhibition (fold less inhibitory than α-amanitin) (pol II [1]): about 20,000 fold

Molecule: CC[C@H](C)[C@@H]1NC(=O)CNC(=O)[C@@H]2Cc3c([nH]c4cc(O)ccc34)[S+]([O-])C[C@@H](NC(=O)CNC1=O)C(=O)N[C@@H](CC(N)=O)C(=O)N1C[C@H](O)C[C@H]1C(=O)N[C@@H]([C@@H](C)[C@@H](O)CO)C(=O)N2 (stereo in doubt) [α-amanitin]
- effect on transcription (pol II [2]): blocks both transcription initiation and elongation
- influence of α-amanitin binding on the affinity of pol II for nucleoside triphosphates (pol II [2]): little if any influence
- rate of translocation of pol II on DNA (pol II [2]; after addition of α-amanitin to a transcribing pol II complex): reduced from several thousand to only a few

Molecule: CCC(C)C1NC(=O)CNC(=O)C2Cc3c([nH]c4cc(O)ccc34)[S+]([O-])CC(NC(=O)CNC1=O)C(=O)NC(CC(N)=O)C(=O)N1CC(O)CC1C(=O)NC(C(C)CC)C(=O)N2 (centres unmarked) [amanullin]
- reduction of inhibition (fold less inhibitory than α-amanitin) (pol II [1]): about 4 fold
